# Test results: US20070128217A1 (priority 2003, published 2007)
# Tests used:
# [1] = tested on: rabbit serum obtained by immunizing a rabbit with the SARS-CoV strain Frankfurt 1; format: binding; design: Binding of a rabbit serum to linear peptides / Binding of a rabbit serum to looped peptides / Rabbit serum linear peptides / Rabbit serum looped peptides / Binding of a rabbit serum to linear peptides of protein N of SARS-CoV Urbani (Rabbit serum linear peptides) / Binding of a rabbit serum to looped/cyclic peptides of protein N of SARS-CoV Urbani (Rabbit serum looped peptides): unit not given here
# [2] = tested on: control sera (pooled serum of ten healthy LUMC hospital workers; commercial negative donor pooled serum from the Dutch bloodbank); format: binding, human; design: Binding of Control serum LUMC to linear peptides / Binding of Control serum Blood-bank to linear peptides / Binding of Control serum LUMC to looped peptides / Binding of Control Serum Blood-Bank to Looped peptides / Binding of Control serum LUMC to linear peptides of the protein M of SARS-CoV Urbani / Binding of Control serum Blood-bank to linear peptides of the protein M of SARS-CoV Urbani / Binding of Control serum LUMC to looped peptides of the protein M of SARS-CoV Urbani / Binding of Control Serum Blood-Bank to Looped peptides of the protein M of SARS-CoV Urbani: unit not given here
# [3] = tested on: antibodies in sera from SARS patients (sera 1a, 1b, 2, 6, 37, 62, London, SARS-yellow, SARS-green); format: binding, human; design: Binding of serum 6 to linear peptides of protein X1 of SARS-CoV Urbani / Binding of serum 37 to linear peptides of protein X1 of SARS-CoV Urbani / Binding of serum 6 to looped/cyclic peptide (PEPSCAN-ELISA) / Binding of serum 37 to looped/cyclic peptide (PEPSCAN-ELISA) / Binding of serum 37 to looped/cyclic peptides of protein X1 of SARS-CoV Urbani / Binding of serum 6 to linear peptides of protein X2 / Binding of serum 37 to linear peptides of protein X2 / Binding of serum 37 to looped/cyclic peptides of protein X2 of SARS-CoV Urbani / Binding of serum 6 to linear peptides of protein M of SARS-CoV Urbani / Binding of serum 37 to linear peptides of protein M of SARS-CoV Urbani / Binding of serum 6 to looped/cyclic peptides of protein M of SARS-CoV Urbani / Binding of serum 37 to looped/cyclic peptides of protein M of SARS-CoV Urbani / Binding of serum 6 to linear peptides of protein X3 of SARS-CoV Urbani / Binding of serum 37 to linear peptides of protein X3 of SARS-CoV Urbani / Binding of serum 37 to looped/cyclic peptides of protein X3 of SARS-CoV Urbani / Binding of serum 6 to linear peptides of protein X4 of SARS-CoV Urbani / Binding of serum 37 to linear peptides of protein X4 of SARS-CoV Urbani / Binding of serum 37 to looped/cyclic peptides of protein X4 of SARS-CoV Urbani / Binding of serum 6 to linear peptides of protein X5 of SARS-CoV Urbani / Binding of serum 37 to linear peptides of protein X5 of SARS-CoV Urbani / Binding of serum 37 to looped/cyclic peptides of protein X5 of SARS-CoV Urbani / Binding of serum 6 to linear peptides of protein N of SARS-CoV Urbani / Binding of serum 37 to linear peptides of protein N of SARS-CoV Urbani / Binding of serum 6 to linear peptide (PEPSCAN-ELISA) / Binding of serum 1a to looped/cyclic peptides of protein N of SARS-CoV Urbani / Binding of serum 1b to looped/cyclic peptides of protein N of SARS-CoV Urbani / Binding of serum 2 to looped/cyclic peptides of protein N of SARS-CoV Urbani / Binding of serum 6 to looped/cyclic peptides of protein N of SARS-CoV Urbani / Binding of serum 37 to looped/cyclic peptides of protein N of SARS-CoV Urbani / Binding of serum 62 to looped/cyclic peptides of protein N of SARS-CoV Urbani / Binding of serum London to looped/cyclic peptides of protein N of SARS-CoV Urbani / Binding of serum SARS-green to looped/cyclic peptides of protein N of SARS-CoV Urbani: unit not given here
Sequence,Binding of a rabbit serum to linear peptides [1],Binding of a rabbit serum to looped peptides [1],Binding of Control Serum Blood-Bank to Looped peptides [2],Binding of Control serum Blood-bank to linear peptides [2],Binding of Control serum LUMC to linear peptides [2],Binding of Control serum LUMC to looped peptides [2],Binding of serum 1a to linear peptides of protein X2 [3],Binding of serum 1a to looped/cyclic peptides of protein X2 of SARS-CoV Urbani [3],Binding of serum 1b to linear peptides of protein X2 [3],Binding of serum 1b to looped/cyclic peptides of protein X2 of SARS-CoV Urbani [3],Binding of serum 2 to linear peptides of protein X2 [3],Binding of serum 2 to looped/cyclic peptides of protein X2 of SARS-CoV Urbani [3],Binding of serum 6 to linear peptides of protein X2 [3],Binding of serum 6 to looped/cyclic peptides of protein X2 of SARS-CoV Urbani [3],Binding of serum 37 to linear peptides of protein X2 [3],Binding of serum 37 to looped/cyclic peptides of protein X2 of SARS-CoV Urbani [3],Binding of serum 62 to linear peptides of protein X2 [3],Binding of serum 62 to looped/cyclic peptides of protein X2 of SARS-CoV Urbani [3],Binding of serum London to linear peptides of protein X2 [3],Binding of serum London to looped/cyclic peptides of protein X2 of SARS-CoV Urbani [3],also measured
LLKTHRMCKYTQSTA,0.5,0.3,0.4,0.7,0.6,0.4,0.8,0.4,0.5,0.3,0.6,0.2,0.6,0.3,0.7,0.2,0.7,0.4,0.5,0.2,Binding of serum SARS-green to linear peptides of protein X2 [3]: 0.6; Binding of serum SARS-green to looped/cyclic peptides of protein X2 of SARS-CoV Urbani [3]: 0.2; Binding of serum SARS-yellow to linear peptides of protein X2 [3]: 0.8; Binding of serum SARS-yellow to looped/cyclic peptides of protein X2 of SARS-CoV Urbani [3]: 0.2
LLKVTAFQHQNSKKT,0.6,0.3,0.4,0.3,0.3,0.5,0.2,0.4,0.0,0.3,0.1,0.2,0.2,0.2,0.5,0.3,0.1,0.4,0.2,0.2,Binding of serum SARS-green to linear peptides of protein X2 [3]: 0.1; Binding of serum SARS-green to looped/cyclic peptides of protein X2 of SARS-CoV Urbani [3]: 0.3; Binding of serum SARS-yellow to linear peptides of protein X2 [3]: 0.1; Binding of serum SARS-yellow to looped/cyclic peptides of protein X2 of SARS-CoV Urbani [3]: 0.3
LLLFVTIYSHLLLVA,0.1,0.5,0.5,0.4,0.4,0.5,,,,,,,,,,,,,,,Binding of serum 1a to linear peptides of protein X1 of SARS-CoV Urbani [3]: 0.7; Binding of serum 1a to looped/cyclic peptide (PEPSCAN-ELISA) [3]: 0.5; Binding of serum 1b to linear peptides of protein X1 of SARS-CoV Urbani [3]: 0.5; Binding of serum 1b to looped/cyclic peptide (PEPSCAN-ELISA) [3]: 0.3; Binding of serum 2 to linear peptides of protein X1 of SARS-CoV Urbani [3]: 0.6; Binding of serum 2 to looped/cyclic peptide (PEPSCAN-ELISA) [3]: 0.4; Binding of serum 6 to linear peptides of protein X1 of SARS-CoV Urbani [3]: 0.3; Binding of serum 6 to looped/cyclic peptide (PEPSCAN-ELISA) [3]: 0.2; Binding of serum 37 to linear peptides of protein X1 of SARS-CoV Urbani [3]: 0.5; Binding of serum 37 to looped/cyclic peptide (PEPSCAN-ELISA) [3]: 0.5; Binding of serum 62 to linear peptides of protein X1 of SARS-CoV Urbani [3]: 0.4; Binding of serum 62 to looped/cyclic peptide (PEPSCAN-ELISA) [3]: 0.4; Binding of serum London to linear peptides of protein X1 of SARS-CoV Urbani [3]: 0.2; Binding of serum London to looped/cyclic peptide (PEPSCAN-ELISA) [3]: 0.2; Binding of serum SARS-green to linear peptides of protein X1 of SARS-CoV Urbani [3]: 0.0; Binding of serum SARS-green to looped/cyclic peptide (PEPSCAN-ELISA) [3]: 0.2; Binding of serum SARS-yellow to linear peptides of protein X1 of SARS-CoV Urbani [3]: 0.3; Binding of serum SARS-yellow to looped/cyclic peptide (PEPSCAN-ELISA) [3]: 0.4
LLLLFVTIYSHLLLV,0.1,0.5,0.6,0.5,0.6,0.5,,,,,,,,,,,,,,,Binding of serum 1a to linear peptides of protein X1 of SARS-CoV Urbani [3]: 0.7; Binding of serum 1a to looped/cyclic peptide (PEPSCAN-ELISA) [3]: 0.5; Binding of serum 1b to linear peptides of protein X1 of SARS-CoV Urbani [3]: 0.5; Binding of serum 1b to looped/cyclic peptide (PEPSCAN-ELISA) [3]: 0.3; Binding of serum 2 to linear peptides of protein X1 of SARS-CoV Urbani [3]: 0.8; Binding of serum 2 to looped/cyclic peptide (PEPSCAN-ELISA) [3]: 0.5; Binding of serum 6 to linear peptides of protein X1 of SARS-CoV Urbani [3]: 0.4; Binding of serum 6 to looped/cyclic peptide (PEPSCAN-ELISA) [3]: 0.3; Binding of serum 37 to linear peptides of protein X1 of SARS-CoV Urbani [3]: 0.5; Binding of serum 37 to looped/cyclic peptide (PEPSCAN-ELISA) [3]: 0.6; Binding of serum 62 to linear peptides of protein X1 of SARS-CoV Urbani [3]: 0.4; Binding of serum 62 to looped/cyclic peptide (PEPSCAN-ELISA) [3]: 0.6; Binding of serum London to linear peptides of protein X1 of SARS-CoV Urbani [3]: 0.2; Binding of serum London to looped/cyclic peptide (PEPSCAN-ELISA) [3]: 0.2; Binding of serum SARS-green to linear peptides of protein X1 of SARS-CoV Urbani [3]: 0.3; Binding of serum SARS-green to looped/cyclic peptide (PEPSCAN-ELISA) [3]: 0.2; Binding of serum SARS-yellow to linear peptides of protein X1 of SARS-CoV Urbani [3]: 0.3; Binding of serum SARS-yellow to looped/cyclic peptide (PEPSCAN-ELISA) [3]: 0.5
